The values below come from US20130310374A1, “Substituted Imidazoquinoline Derivatives” (PIRAMAL ENTERPRISES LIMITED`, priority 2010, published 2013).

In one assay the test system is A2780. Kind of assay: Cytotoxicity propidium iodide assay, A2780. The format is cell-based. The following applies: Homo sapiens; A2780 (ovarian), 48 hours treatment; read-out: IC50 Values in μM, C1a. The procedure, abridged: (§1)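 Read-out: propidium iodide fluorescence after freeze-thaw, with untreated wells set to 100% viability and IC50 taken from the plotted percentages. Cells (3000/well) were pre-incubated 18-24 h, then treated 48 h with a range of compound concentrations.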

A further assay relates to PC3. Briefly: Cytotoxicity propidium iodide assay, PC3. The format is cell-based, human. The note with it: Homo sapiens, PC-3; PC3 (prostate), 48 hours treatment; read-out: IC50 Values in μM, C2a. In outline: as §1
For another assay, the system named is K562. Kind of assay: Cytotoxicity propidium iodide assay, K562. The format is cell-based. The following applies: Homo sapiens; K562 (CML), 48 hours treatment; read-out: IC50 Values in μM, C6a. As to the method: (§2) The assay was designed as in the reference, Anticancer Drugs, 2002, 13, 1-8, the disclosure of which is incorporated herein by reference for the teaching of the assay.
(§3) Cells from cell lines (ATCC) as mentioned in the table given below were seeded at a density of 3000 cells/well in a white opaque 96-well plate. Following incubation at 37° C./5% CO2 for a period of 18-24 hours, the cells were treated with various concentrations (stock solution was prepared in DMSO and subsequent dilutions were made in media as per ATCC guidelines) of the compounds of the present invention for a period of 48 hours. At the end of treatment, the culture medium was discarded, the cells were washed with 1×PBS and 200 μL of […] propidium iodide was added to each well. The plates were frozen at 70° C. overnight. For analysis, the plates were warmed to RT, allowed to thaw and were read in PoleStar fluorimeter with the fluorescence setting. The percentage of viable cells in the non-treated set of wells was considered to be 100 and the percentage viability following treatment was calculated accordingly. IC50 values were calculated from graphs plotted using these percentages. IC50 values for certain compounds of present invention are depicted in Table 1 and % Inhibition of certain compounds of present invention are depicted in Table 2.

For a further assay, the system named is T315I. Briefly: Cytotoxicity propidium iodide assay, T315I. The format is cell-based. The note with it: T315I (CML), 48 hours treatment; read-out: IC50 Values in μM, C6b. As to the method: as §2, §3
In another assay the test system is KU812/SR. Kind of assay: Cytotoxicity propidium iodide assay, KU812/SR. The format is cell-based. The note with it: Homo sapiens; KU812/SR (CML), 48 hours treatment; read-out: IC50 Values in μM, C6c. The protocol: as §2, §3
The subject of a further assay is KCL22/SR. Kind of assay: Cytotoxicity propidium iodide assay, KCL22/SR. The following applies: Homo sapiens, KCL-22; KCL22/SR (CML), 48 hours treatment; read-out: IC50 Values in μM, C6e. The format is cell-based. The protocol: as §2, §3
A further assay has as its system KCL22. Kind of assay: Cytotoxicity propidium iodide assay, KCL22. The note with it: Homo sapiens, KCL-22; KCL22 (CML), 48 hours treatment; read-out: IC50 Values in μM, C6f. The format is cell-based. The protocol:
as §2
as §3, with “The plates were frozen at 70° C. overnight.” left out

The next assay deals with MDA MB 231. Briefly: Cytotoxicity propidium iodide assay, MDA MB 231. The format is cell-based. The note with it: Homo sapiens; MDA MB 231 (breast), 48 hours treatment; read-out: IC50 Values in μM, C3a.
The test system of another assay is MDA MB 468. Briefly: Cytotoxicity propidium iodide assay, MDA MB 468. The format is cell-based. The note with it: Homo sapiens; MDA MB 468 (breast), 48 hours treatment; read-out: IC50 Values in μM, C3b. The procedure, abridged: as §1
For another assay, the system named is BT 549. Briefly: Cytotoxicity propidium iodide assay, BT 549. The format is cell-based. The note with it: Homo sapiens; BT 549 (breast), 48 hours treatment; read-out: IC50 Values in μM, C3c. The procedure, abridged:
as §1

The test system of a further assay is MCF7. Kind of assay: Cytotoxicity propidium iodide assay, MCF7. The format is cell-based. The note with it: Homo sapiens; MCF7 (breast), 48 hours treatment; read-out: IC50 Values in μM, C3d. In outline:
as §1

In another assay the test system is PANC 1. Kind of assay: Cytotoxicity propidium iodide assay, PANC 1. The format is cell-based. The note with it: Homo sapiens; PANC 1 (pancreatic), 48 hours treatment; read-out: IC50 Values in μM, C4a. As to the method:
as §2, §3

In another assay the test system is AsPC 1. Kind of assay: Cytotoxicity propidium iodide assay, AsPC 1. The format is cell-based. The following applies: Homo sapiens, ASPC1; AsPC 1 (pancreatic), 48 hours treatment; read-out: IC50 Values in μM, C4b.
The subject of a further assay is BxPC3. Kind of assay: Cytotoxicity propidium iodide assay, BxPC3. The following applies: Homo sapiens, BXPC-3; BxPC3 (pancreatic), 48 hours treatment; read-out: IC50 Values in μM, C4c. The format is cell-based. In outline: as §1
In the next assay the test system is KU812. Kind of assay: Cytotoxicity propidium iodide assay, KU812. The format is cell-based. The following applies: Homo sapiens; KU812 (CML), 48 hours treatment; read-out: IC50 Values in μM, C6d. As to the method: as §2, §3

Usually IC50 stands for the concentration at which inhibition is half-maximal. Consider `Cn1c(=O)n(-c2ccc(C(C)(C)C#N)nc2)c2c3cc(-c4cccnc4)ccc3ncc21` [Example 1, 2-Methyl-2-(5-(3-methyl-2-oxo-8-(pyridin-3-yl)-2,3-dihydro-1H-imidazo[4,5-c]quinolin-1-yl)pyridin-2-yl)propanenitrile], for which the concentration for half-maximal inhibition (IC50) with A2780 was 0.4 µM; in the assay with PC3, 0.22 µM; in the assay on K562, 0.9 µM; in the assay on T315I, 3.3 µM; in the assay on KU812/SR, 0.96 µM; in the assay on KCL22/SR, 0.62 µM. The IC50 in the assay with KCL22 turned out to be 1.18 µM.
Take `Cn1c(=O)n(CCN2CCOCC2)c2c3cc(-c4cnc5ccccc5c4)ccc3ncc21` [Example 70, 3-Methyl-1-(2-morpholinoethyl)-8-(quinolin-3-yl)-1H-imidazo[4,5-c]quinolin-2(3H)-one]: the half-maximal inhibitory concentration (IC50) in the assay with A2780 was 0.3 µM; with PC3, 0.9 µM; in the assay with MDA MB 231 it was 0.7 µM; in the assay on MDA MB 468 it was 1.1 µM; with BT 549, 2.1 µM; in the assay with MCF7, 0.7 µM. For the same molecule, the IC50 with PANC 1 was determined as 1 µM; in the assay with AsPC 1 it was 1.6 µM; with BxPC3 it was 0.7 µM; in the assay on K562, 0.7 µM; with T315I it was 2.56 µM; in the assay with KU812/SR it was 3.38 µM. Further, the values for the IC50 in the assay with KU812, with KCL22/SR and in the assay with KCL22 were 4 µM, 1.57 µM and 2.17 µM, respectively.
As to `COc1ccc(-n2c(=O)n(C)c3cnc4ccc(-c5cnc6ccccc6c5)cc4c32)cn1` [Example 20, 1-(6-Methoxypyridin-3-yl)-3-methyl-8-(quinolin-3-yl)-1H-imidazo[4,5-c]quinolin-2(3H)-one], the IC50 with A2780 came out at 0.07 µM; in the assay on PC3, 0.27 µM; in the assay with MDA MB 231 it was 0.37 µM; in the assay on MDA MB 468 it was 0.47 µM; in the assay with BT 549 it was 1 µM; in the assay on MCF7, 0.55 µM. Besides, the IC50 in the assay with PANC 1 stood at 0.25 µM; in the assay on AsPC 1, 0.4 µM; with BxPC3, 0.45 µM; with K562, 0.1 µM; in the assay on T315I, 1.96 µM; in the assay with KU812/SR it was 5.44 µM. The figures for the 50% inhibitory concentration (IC50) in the assay on KU812, with KCL22/SR and in the assay on KCL22 were 1.99 µM, 1.09 µM and 2.86 µM, respectively.
